Experimental data taken from article doi:10.1101/2020.07.01.182642v1 (biorxiv, 2020).

What was measured:
[1] = molecular target: CLK1 (full-length) (Homo sapiens, UniProt P49759); experiment: cell-based; parameters: species or system HEK293T
[2] = molecular target: CLK1 (full-length) (Homo sapiens, UniProt P49759, V324A); experiment: cell-based; parameters: species or system HEK293T
[3] = molecular target: PRKCZ (Homo sapiens, UniProt Q05513); conditions: binder
[4] = molecular target: PRKACA (Homo sapiens, UniProt P17612); conditions: binder
[5] = molecular target: PAK1 (Homo sapiens, UniProt Q13153); conditions: binder
Chain of PAK1 (Q13153 whole entry): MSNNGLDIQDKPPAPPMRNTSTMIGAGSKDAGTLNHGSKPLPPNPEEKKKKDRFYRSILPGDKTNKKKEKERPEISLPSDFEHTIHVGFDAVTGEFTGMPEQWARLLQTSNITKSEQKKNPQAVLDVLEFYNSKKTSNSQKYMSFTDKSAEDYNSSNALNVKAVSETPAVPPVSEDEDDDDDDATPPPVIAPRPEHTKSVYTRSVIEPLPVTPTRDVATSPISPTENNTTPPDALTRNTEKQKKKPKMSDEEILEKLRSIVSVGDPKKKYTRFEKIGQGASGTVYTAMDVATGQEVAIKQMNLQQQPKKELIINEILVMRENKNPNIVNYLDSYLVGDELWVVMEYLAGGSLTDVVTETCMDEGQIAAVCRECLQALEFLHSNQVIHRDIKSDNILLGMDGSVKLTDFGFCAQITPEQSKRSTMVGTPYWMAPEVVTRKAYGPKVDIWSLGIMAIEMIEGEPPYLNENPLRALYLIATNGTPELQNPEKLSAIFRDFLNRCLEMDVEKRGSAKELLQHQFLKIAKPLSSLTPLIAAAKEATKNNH

[6] = molecular target: CAMK2G (Homo sapiens, UniProt Q13555); conditions: binder
Chain of CAMK2G (Q13555 whole entry): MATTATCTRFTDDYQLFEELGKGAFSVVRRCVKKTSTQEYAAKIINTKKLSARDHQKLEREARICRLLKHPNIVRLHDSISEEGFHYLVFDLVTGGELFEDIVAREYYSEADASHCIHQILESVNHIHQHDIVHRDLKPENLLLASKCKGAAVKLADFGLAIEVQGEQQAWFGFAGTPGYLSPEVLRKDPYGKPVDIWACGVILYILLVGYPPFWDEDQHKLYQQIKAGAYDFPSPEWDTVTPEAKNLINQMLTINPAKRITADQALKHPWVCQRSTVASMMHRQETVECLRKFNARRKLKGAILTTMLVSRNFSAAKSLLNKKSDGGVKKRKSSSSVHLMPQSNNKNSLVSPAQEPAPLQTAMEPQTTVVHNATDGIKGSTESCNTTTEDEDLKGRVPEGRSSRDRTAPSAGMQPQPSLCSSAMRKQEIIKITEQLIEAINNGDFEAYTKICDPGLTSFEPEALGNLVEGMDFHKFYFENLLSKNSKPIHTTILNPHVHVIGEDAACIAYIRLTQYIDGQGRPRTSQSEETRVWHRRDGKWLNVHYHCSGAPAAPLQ

[7] = molecular target: NLK (Homo sapiens, UniProt Q9UBE8); conditions: binder
Chain of NLK (Q9UBE8 whole entry): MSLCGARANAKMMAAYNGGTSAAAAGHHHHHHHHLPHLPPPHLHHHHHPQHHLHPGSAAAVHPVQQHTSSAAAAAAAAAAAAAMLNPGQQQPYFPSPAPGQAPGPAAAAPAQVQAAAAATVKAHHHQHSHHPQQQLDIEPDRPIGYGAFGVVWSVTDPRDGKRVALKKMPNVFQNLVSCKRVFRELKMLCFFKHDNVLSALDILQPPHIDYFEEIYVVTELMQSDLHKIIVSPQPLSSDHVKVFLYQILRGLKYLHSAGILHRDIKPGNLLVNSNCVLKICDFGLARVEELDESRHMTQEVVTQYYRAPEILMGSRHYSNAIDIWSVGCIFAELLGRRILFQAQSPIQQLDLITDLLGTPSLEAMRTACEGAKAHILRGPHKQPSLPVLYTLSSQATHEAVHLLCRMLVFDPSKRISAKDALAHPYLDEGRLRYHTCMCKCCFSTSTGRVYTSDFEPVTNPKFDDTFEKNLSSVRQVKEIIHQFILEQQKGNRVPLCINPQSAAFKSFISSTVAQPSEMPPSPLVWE

[8] = molecular target: NEK6 (Homo sapiens, UniProt Q9HC98); conditions: binder
[9] = molecular target: TLK1 (Homo sapiens, UniProt Q9UKI8); conditions: binder
[10] = molecular target: ITK (Homo sapiens, UniProt Q08881); conditions: binder
Chain of ITK (Q08881 whole entry): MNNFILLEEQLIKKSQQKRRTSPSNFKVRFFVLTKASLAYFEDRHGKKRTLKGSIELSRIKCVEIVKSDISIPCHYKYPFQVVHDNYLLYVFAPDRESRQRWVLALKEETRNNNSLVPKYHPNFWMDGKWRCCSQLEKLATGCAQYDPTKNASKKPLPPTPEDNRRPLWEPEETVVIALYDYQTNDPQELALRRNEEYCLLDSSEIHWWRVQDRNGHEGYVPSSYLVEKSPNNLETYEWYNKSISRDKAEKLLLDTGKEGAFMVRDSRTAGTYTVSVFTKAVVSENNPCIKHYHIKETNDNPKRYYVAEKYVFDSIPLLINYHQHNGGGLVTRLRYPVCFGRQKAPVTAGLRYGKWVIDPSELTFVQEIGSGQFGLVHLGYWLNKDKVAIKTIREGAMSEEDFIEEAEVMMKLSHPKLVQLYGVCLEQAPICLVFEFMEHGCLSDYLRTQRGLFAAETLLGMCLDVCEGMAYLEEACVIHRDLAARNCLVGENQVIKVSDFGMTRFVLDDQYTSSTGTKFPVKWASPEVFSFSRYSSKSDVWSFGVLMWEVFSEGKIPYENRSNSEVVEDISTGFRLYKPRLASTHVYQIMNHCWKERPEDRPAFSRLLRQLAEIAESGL

[11] = molecular target: PRKG2 (Homo sapiens, UniProt Q13237); conditions: binder
Chain of PRKG2 (Q13237 whole entry): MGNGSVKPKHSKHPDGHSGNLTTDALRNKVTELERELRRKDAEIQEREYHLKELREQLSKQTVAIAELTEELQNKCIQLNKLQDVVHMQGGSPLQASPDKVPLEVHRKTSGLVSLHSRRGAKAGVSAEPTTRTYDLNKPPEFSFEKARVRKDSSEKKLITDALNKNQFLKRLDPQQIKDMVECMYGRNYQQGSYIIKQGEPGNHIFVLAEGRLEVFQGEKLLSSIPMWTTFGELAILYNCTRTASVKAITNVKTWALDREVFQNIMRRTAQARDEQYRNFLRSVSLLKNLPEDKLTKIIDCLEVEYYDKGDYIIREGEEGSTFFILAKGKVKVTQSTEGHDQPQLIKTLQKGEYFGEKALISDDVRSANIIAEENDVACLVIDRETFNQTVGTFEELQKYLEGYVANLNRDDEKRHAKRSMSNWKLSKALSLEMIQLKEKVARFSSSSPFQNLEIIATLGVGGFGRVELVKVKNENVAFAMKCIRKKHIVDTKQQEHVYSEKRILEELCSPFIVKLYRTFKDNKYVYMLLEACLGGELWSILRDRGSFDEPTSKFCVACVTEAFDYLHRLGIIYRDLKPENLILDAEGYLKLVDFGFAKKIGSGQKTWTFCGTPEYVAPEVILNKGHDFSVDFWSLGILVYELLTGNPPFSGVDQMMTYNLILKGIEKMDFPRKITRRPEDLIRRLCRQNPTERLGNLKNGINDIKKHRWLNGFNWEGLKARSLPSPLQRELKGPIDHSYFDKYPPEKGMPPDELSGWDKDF

[12] = molecular target: ADRBK2 (Homo sapiens, UniProt P35626); conditions: binder
Chain of ADRBK2 (P35626 whole entry): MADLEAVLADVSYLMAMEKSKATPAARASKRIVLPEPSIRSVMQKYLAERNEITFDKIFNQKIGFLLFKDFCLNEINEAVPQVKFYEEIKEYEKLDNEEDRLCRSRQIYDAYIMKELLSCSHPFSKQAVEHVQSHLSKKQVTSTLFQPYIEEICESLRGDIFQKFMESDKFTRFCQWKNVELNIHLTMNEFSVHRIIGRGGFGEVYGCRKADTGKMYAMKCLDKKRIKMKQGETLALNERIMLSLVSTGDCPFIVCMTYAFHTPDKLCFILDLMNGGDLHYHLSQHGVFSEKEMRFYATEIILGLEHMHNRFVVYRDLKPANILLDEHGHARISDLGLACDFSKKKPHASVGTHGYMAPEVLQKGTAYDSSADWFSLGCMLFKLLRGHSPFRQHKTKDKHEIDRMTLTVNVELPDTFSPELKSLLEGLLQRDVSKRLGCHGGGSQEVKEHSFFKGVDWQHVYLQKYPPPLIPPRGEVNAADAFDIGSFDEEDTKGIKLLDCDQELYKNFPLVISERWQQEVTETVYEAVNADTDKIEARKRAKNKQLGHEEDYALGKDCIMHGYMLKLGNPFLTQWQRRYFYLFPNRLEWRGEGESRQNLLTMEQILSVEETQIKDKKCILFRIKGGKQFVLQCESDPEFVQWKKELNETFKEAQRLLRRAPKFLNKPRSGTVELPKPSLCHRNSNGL

Chain of CLK1 (full-length) (Homo sapiens, UniProt P49759) (P49759 whole entry): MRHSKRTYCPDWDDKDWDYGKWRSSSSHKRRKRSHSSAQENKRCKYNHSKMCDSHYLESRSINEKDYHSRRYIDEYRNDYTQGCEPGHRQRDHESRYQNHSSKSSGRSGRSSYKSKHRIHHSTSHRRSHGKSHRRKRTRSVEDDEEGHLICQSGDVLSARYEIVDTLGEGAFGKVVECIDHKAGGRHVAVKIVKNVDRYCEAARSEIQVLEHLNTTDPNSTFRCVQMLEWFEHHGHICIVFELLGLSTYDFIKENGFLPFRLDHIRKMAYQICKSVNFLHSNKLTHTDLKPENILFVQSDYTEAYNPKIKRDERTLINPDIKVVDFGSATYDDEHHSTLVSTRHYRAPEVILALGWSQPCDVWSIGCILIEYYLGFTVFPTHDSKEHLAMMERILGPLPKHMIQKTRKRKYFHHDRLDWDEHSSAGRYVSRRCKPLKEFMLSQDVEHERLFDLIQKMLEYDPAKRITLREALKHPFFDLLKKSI
Chain of PRKCZ (Q05513 whole entry): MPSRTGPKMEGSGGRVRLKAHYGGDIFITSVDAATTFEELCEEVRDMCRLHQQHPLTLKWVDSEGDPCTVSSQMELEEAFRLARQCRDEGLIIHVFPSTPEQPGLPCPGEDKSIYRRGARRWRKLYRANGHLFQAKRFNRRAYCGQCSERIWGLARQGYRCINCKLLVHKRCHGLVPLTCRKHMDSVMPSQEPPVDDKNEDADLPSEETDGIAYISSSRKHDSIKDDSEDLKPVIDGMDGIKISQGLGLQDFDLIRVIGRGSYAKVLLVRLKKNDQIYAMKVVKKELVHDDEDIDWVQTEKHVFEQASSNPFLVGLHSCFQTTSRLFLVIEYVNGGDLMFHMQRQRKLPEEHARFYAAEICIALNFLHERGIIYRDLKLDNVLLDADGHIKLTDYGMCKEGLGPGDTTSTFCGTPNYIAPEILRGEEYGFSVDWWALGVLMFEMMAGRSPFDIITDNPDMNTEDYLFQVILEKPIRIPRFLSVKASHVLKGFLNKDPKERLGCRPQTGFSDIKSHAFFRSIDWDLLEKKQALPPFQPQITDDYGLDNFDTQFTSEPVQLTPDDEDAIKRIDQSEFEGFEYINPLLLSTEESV
Chain of CLK1 (full-length) (Homo sapiens, UniProt P49759, V324A) (P49759 whole entry V324A): as the sequence (P49759 whole entry) above, with V324A counted along it

Ki [1] [nM] | Ki [2] [nM] | ΔTm inhibitor 2 [3] [°C] | ΔTm inhibitor 2 [4] [°C] | ΔTm inhibitor 2 [5] [°C] | ΔTm inhibitor 2 [6] [°C] | ΔTm inhibitor 2 [7] [°C] | ΔTm inhibitor 2 [8] [°C] | ΔTm inhibitor 2 [9] [°C] | ΔTm inhibitor 2 [10] [°C] | ΔTm inhibitor 2 [11] [°C] | ΔTm inhibitor 2 [12] [°C] | Compound
229 ± 100 | 512 ± 100 | – | – | – | – | – | – | – | – | – | – | CC(=O)c1cccc(-c2cnc3ccc(NCC4CC4)nn23)c1 [compound 1, K00135]
– | – | -0.2 | -0.2 | 0.0 | 0.1 | -0.2 | -1.0 | -0.1 | 1.1 | -0.1 | -0.2 | CCN1/C(=C/C(C)=O)Sc2ccc(OC)cc21 [compound 2, TG003]
